# Results from patent US8426406B2, “Glucocorticoid receptor agonist comprising 2,2,4-trimethyl-6-phenyl-1,2-dihydroquinoline derivatives having substituted oxy group” (Santen Pharmaceutical Co., Ltd., priority 2008, dated 2013).
# How the values were obtained:
# [1] = system: choroidal neovascularization (CNV) model in rats; experiment: Evaluation test for inhibitory effect of choroidal neovascularization (laser induced CNV model in rats); format: in vivo; details: Brown Norway rats, 1% (w/v) suspension eye drops four times a day or 20 mg/mL subconjunctival injection (route not given), vs vehicle, mean of 7-8 eyes in 4 rats
# Experimental: The choroidal neovascularization (CNV) model in rats is known as one of the popular methods for evaluating the CNV inhibitory effect of drugs. This method is reported in Graefe's Arch. Cli. Exp. Ophthalmol., 235, 313-319 (1997). According to this method, the CNV examinations were performed to evaluate the CNV inhibitory effect of test compounds by comparing the incidence rates of CNV in vehicle group (control group) with test compound-treated groups.
# For eye drop administration, a 1% (w/v) test compound suspension was prepared by adding 0.5% polysorbate 80/saline to the test compound. For subconjunctival injection, a 20 mg/mL test compound suspension was prepared by adding 0.5% hydrogenated castor oil/saline to the test compound.
# 1) Brown Norway male rats (7-8 weeks, 140-240 g) were anesthetized with intramuscular injection (1 mL/kg) of the mixed solution (5% ketamine HCl: 2% xylazine HCl=7:1).
# 2) After mydriasis using tropicamide phenylephrine hydrochloride eye drops (trade name Mydrin P), laser photocoagulation of bruch's membrane in rats was performed with krypton laser photocoagulation machine. Laser irradiation was performed at 8-9 points per eye avoiding thick retinal blood vessels in ocular fundus and focusing on the depth of retina. The conditions were 100 μm spot size, 100 mW power, 0.1 second duration.
# 3) After laser photocoagulation, photographs of ocular fundus were taken and the laser photocoagulation (laser irradiation) points were confirmed.
# 1) In case of eye drops administration, a test compound suspension was administrated four times a day from laser irradiation day (the 1st day) to the 8th day. In case of subconjunctival injection, a 50 μL test compound suspension was injected into conjunctivae just after laser irradiation.
# 2) In vehicle group (control group), 0.5% polysorbate 80/saline or 0.5% hydrogenated castor oil/saline was used instead of a test compound suspension. And the test was performed according to the method 1).
# 1) 7 days after laser irradiation, 0.1 mL of 10% fluorescein was injected into rat tail vein and fluorescein angiography was performed.
# 2) When the fluorescent leakage was not detected in the fluorescent angiography, the spot was judged to be a negative spot. When the fluorescent leakage was detected, the spot was judged to be a positive spot. When the fluorescent leakage was detected as a little leakage, two spots were counted as one positive spot.
# 3) The neovascular incidence rate was calculated according to the equation 1. According to the equation 2, the ratio of neovascular incidence rate in test compound group to vehicle group was calculated. Neovascular incidence rate(%)=(Positive spots/all spots)×100 (Equation 1) Angiogenic inhibition ratio in test compound group(%)=(1−Ax/Ao)×100 (Equation 2)
# Ao: Neovascular incidence rate in vehicle group (control group)
# Ax: Neovascular incidence rate in test compound group
# [2] = system: corneal disorder model in rats; experiment: Test for therapeutic effects on corneal disorder (corneal disorder model associated with dry eye); format: in vivo; details: male SD rats, exorbital lacrimal gland removed; 0.03% (W/V) ophthalmic suspension instilled 6 times a day for 14 days; fluorescein staining score; 8 eyes in 4 animals
# Experimental: In order to evaluate the improvement effect of corneal disorder with dry eye of the present compounds, using male SD rats, corneal disorder models were produced according to the method of Fujihara et al. (Invest. Ophthalmol. Vis. Sci. 42 (1): 96-100 (2001)). After the production of the corneal disorder models, the improvement ratio of the corneal disorder was assessed according to the method of Murakami et al. (Journal of the eye 21 (1): 87-90 (2004)).
# A 0.03% (W/V) test compound ophthalmic suspension was prepared by adding vehicle containing polysorbate 80 and the general additives to test compound.
# 1) Male SD rats were systemically anesthetized by an administration of Somnopentyl. Subsequently the exorbital lacrimal gland of each rat was removed and a corneal damage was induced over a period of 2 months.
# 2) The test compound ophthalmic suspension was instilled into both eyes 6 times a day for 14 days. In a control group, vehicle was instilled in the same way.
# 3) Fourteen days after the start of instillation, the damaged parts of the cornea were stained with fluorescein. For each of the upper, middle and lower parts of the cornea, the degree of fluorescein staining was evaluated by scoring according to the criteria shown below and the mean value of the total scores for each of the above-mentioned parts was calculated. The score range in each divided section is 0 to 3 and the minimum score unit is 0.5. 0.5 was provided as an intermediate value between each score 0, 1, 2, 3.
# 1: Scattered staining (each punctate staining being separated)
# 2: Moderate staining (a part of punctate staining being adjacent)
# 3: Heavy staining (each punctate staining being adjacent) Improvement ratio of test compound instillation group(%)=(Ao−Ax)/(Ao−An)×100 (Calculation Equation)
# Ao: the mean value of corneal disorder score in vehicle instilled (control) group
# Ax: the mean value of corneal disorder score in test compound instilled group
# An: the mean value of corneal disorder score in normal rat group.
SMILES,Angiogenic inhibition ratio (%) [1],Improvement ratio of corneal disorder (%) [2]
"COc1cc(OC(=O)c2cccnc2)ccc1-c1ccc2c(c1COc1cc([N+](=O)[O-])ccc1C)C(C)=CC(C)(C)N2 [Compound 1-72, 6-[2-Methoxy-4-(pyridin-3-ylcarbonyloxy)phenyl]-5-(2-methyl-5-nitrophenoxymethyl)-2,2,4-trimethyl-1,2-dihydroquinoline]",28%,67%
"COc1cc(OC(=O)c2ccsc2)ccc1-c1ccc2c(c1COc1cc(F)ccc1C)C(C)=CC(C)(C)N2 [Compound 1-12, 5-(5-Fluoro-2-methylphenoxymethyl)-6-[2-methoxy-4-(thiophen-3-ylcarbonyloxy)phenyl]-2,2,4-trimethyl-1,2-dihydroquinoline]",37%,69%
"COc1cc(OC(=O)c2ccco2)ccc1-c1ccc2c(c1COc1cc(F)ccc1C)C(C)=CC(C)(C)N2 [Compound 1-13, 5-(5-Fluoro-2-methylphenoxymethyl)-6-[4-(furan-2-ylcarbonyloxy)-2-methoxyphenyl]-2,2,4-trimethyl-1,2-dihydroquinoline]",38%,61%
"CCCS(=O)(=O)Oc1ccc(-c2ccc3c(c2CNc2ccccc2OC)C(C)=CC(C)(C)N3)c(OC)c1 [Compound 4-18, 5-(2-Methoxyphenylaminomethyl)-6-(2-methoxy-4-propylsulfonyloxyphenyl)-2,2,4-trimethyl-1,2-dihydroquinoline]",35%,56%
